≈ marks a conversion by molar mass, not a printed value. Where two headings read alike, the source gives them in different places.
Legend:
A. baumannii ATCC19606 = assay: Checkerboard assay EtDip with colistin; assay type: cell-based, Acinetobacter baumannii; details: CAMB, + 150 mM NaCl, + 1.25 mM CaCl2; FICindex ≤0.5 = synergy
Protocol: The interactions between pairs of compounds were analyzed using checkerboard assays in a 384-well microtiter plate with an assay volume of 20 µL. Immediately before the test runs, the bacterial cultures were diluted in CAMB to a density of 5 × 10^5 cells/mL. The two compounds for combinatorial testing were arrayed as 10-fold concentrated serial dilutions with respect to the final concentration, vertically for one compound and horizontally for the other, in the same 384-well microplate. Subsequently, we transferred 2-µL aliquots to new 384-well microtiter plates, and growth inhibition in each well was determined, as described for the MIC values above. Fractional inhibitory concentration (FIC) and FICindex values for each combination were calculated using the following formulae, where a
FICindex ≤0.5 indicates synergy and a FICindex >4 indicates antagonism.
FIC for compound A = MIC of compound A in combination/MIC of compound A
FIC for compound B = MIC of compound B in combination/MIC of compound B

[1] = tested on: Enterobacter cloacae clinical isolates (23); assay: MIC, clinical isolates; assay type: cell-based
Protocol: (§1) The strains that were used in this study (Table 2 and Table S1) were cultivated at 37 °C in cation-adjusted Mueller–Hinton broth (CAMB) in Erlenmeyer flasks, or on the same medium with agar in Petri dishes. Exceptionally, Mycobacterium smegmatis was cultivated at 37 °C in brain heart infusion (BHI) medium that was supplemented with 1% Tween-80 in Erlenmeyer flasks, or on the same medium lacking detergent but with agar in Petri dishes. Strains listed with Robert Koch Institute (RKI) strain numbers are clinical isolates from the RKI strain collection originating from hospitalized patients in Germany. The remaining strains originated from the Sanofi strain collection and they were originally purchased from the American Type Culture Collection or the German Collection of Microorganisms and Cell Cultures. Meropenem/colistin-resistant strains were maintained, as described above, with the appropriate antibiotic added at levels below the minimal inhibitory concentration (MIC).
(§2) The MIC values were determined in 384-well microtiter plates with an assay volume of 20 µL. Immediately before each assay, the cultures of test organisms (bacteria grown for 18 h, Candida albicans and M. smegmatis grown for 48 h) were diluted with the appropriate medium to a density of 1 × 10^6 cells/mL (C. albicans), 1 × 10^5 cells/mL (M. smegmatis) or 5 × 10^5 cells per mL (other species). […] We transferred 2-µL aliquots from this dilution series to new 384-well microtiter plates while using a CyBio-Well 384-channel automated pipettor (Analytic Jena, Jena, Germany) and added 18 µL of the diluted suspension of each test species using a Viafill reagent dispenser (Integra), thus reducing the final peptide concentration 10-fold to the range 1024–0.03125 µg/mL. […] The growth of M. smegmatis was measured using the BacTiter-Glo luminescence test system (Promega, Madison, WI, USA). The growth of the other species was determined by visual inspection of the microtiter plate and turbidimetry based on the optical density at 600 nm (OD600). The MIC was defined as the peptide concentration at which no bacterial growth was observed. We supplemented the test medium with either 150 mM NaCl or 1.25 mM CaCl2 to represent monovalent and divalent cations to simulate physiological conditions.

[2] = tested on: Klebsiella pneumoniae clinical isolates (21); assay: MIC, clinical isolates; assay type: cell-based
Protocol: as §1, §2

[3] = tested on: Acinetobacter pittii clinical isolate (1); assay: MIC, clinical isolates; assay type: cell-based; details: Table S1, RKI 588/16
Protocol: as §1, §2

[4] = tested on: Enterobacter aerogenes clinical isolate (1); assay: MIC, clinical isolates; assay type: cell-based; details: Klebsiella aerogenes; Table S1, RKI 1026/14-1
Protocol: as §1, §2

[5] = tested on: Escherichia coli clinical isolates (26); assay: MIC, clinical isolates; assay type: cell-based
Protocol: as §1, §2

[6] = tested on: Stenotrophomonas maltophilia clinical isolates (2); assay: MIC, clinical isolates; assay type: cell-based; details: Table S1, RKI 729/15
Protocol: as §1, §2

[7] = tested on: Morganella morganii clinical isolates (4); assay: MIC, clinical isolates; assay type: cell-based
Protocol: as §1, §2

[8] = tested on: Citrobacter freundii clinical isolate (1); assay: MIC, clinical isolates; assay type: cell-based; details: Table S1, RKI 604/16
Protocol: as §1, §2

[9] = tested on: Klebsiella oxytoca clinical isolates (2); assay: MIC, clinical isolates; assay type: cell-based; details: Table S1, RKI 609/16
Protocol: as §1, §2

With “QFNMQGGGSPRQGFDVNANARFPIWQSQNARNSVHGTASYAQHLGGPYGNSRPNFGGGLQFT [EtDip, diptericin-like peptide of Eristalis tenax]” the “interaction with colistin (FICindex)” value (A. baumannii ATCC19606) was “Synergistic interactions”.

`C[C@@H](O)[C@H]1C(=O)N2C(C(=O)O)=C(S[C@@H]3CN[C@H](C(=O)N(C)C)C3)[C@H](C)[C@H]12` [MEM, meropenem] was tested, and the MIC ([1]; Table S1, RKI 5/14) was 4 µg/mL (≈ 10.4 µM), the MIC ([1]; Table S1, RKI 33/16) was 8 µg/mL (≈ 20.9 µM) and the MIC ([1]; Table S1, RKI 34/16) was 32 µg/mL (≈ 83.4 µM). For the same compound, the MIC ([1]; Table S1, RKI 37/14) was no more than 0.5 µg/mL, the MIC ([1]; Table S1, RKI 76/15) was no more than 0.5 µg/mL and the MIC ([1]; Table S1, RKI 113/16) was 2 µg/mL (≈ 5.22 µM). It also gave an MIC ([1]; Table S1, RKI 136/15) greater than 64 µg/mL, an MIC ([1]; Table S1, RKI 141/15) of 2 µg/mL (≈ 5.22 µM) and an MIC ([1]; Table S1, RKI 210/15) of no more than 0.5 µg/mL. It also gave an MIC ([1]; Table S1, RKI 215/15) of no more than 0.5 µg/mL, an MIC ([1]; Table S1, RKI 243/15) of no more than 0.5 µg/mL and an MIC ([1]; Table S1, RKI 287/13) of 64 µg/mL (≈ 167 µM). For the same compound, the MIC ([1]; Table S1, RKI 308/13) was 8 µg/mL (≈ 20.9 µM), the MIC ([1]; Table S1, RKI 348/15) was 1 µg/mL (≈ 2.61 µM) and the MIC ([1]; Table S1, RKI 361/13) was no more than 0.5 µg/mL. It also gave an MIC ([1]; Table S1, RKI 460/16) of 64 µg/mL (≈ 167 µM), an MIC ([1]; Table S1, RKI 466/13) of 16 µg/mL (≈ 41.7 µM) and an MIC ([1]; Table S1, RKI 506/15) of 16 µg/mL (≈ 41.7 µM). The MIC ([1]; Table S1, RKI 546/13) was no more than 0.5 µg/mL, the MIC ([1]; Table S1, RKI 571/13) was no more than 0.5 µg/mL and the MIC ([1]; Table S1, RKI 733/14) was 64 µg/mL (≈ 167 µM). For the same compound, the MIC ([1]; Table S1, RKI 766/15) was no more than 0.5 µg/mL, the MIC ([2]; Klebsiella pneumoniae, Table S1, RKI 600/16, read-out: MIC) was no more than 0.5 µg/mL and the MIC ([2]; Table S1, RKI 19/16) was no more than 0.5 µg/mL. For the same compound, the MIC ([2]; Table S1, RKI 80/15) was no more than 0.5 µg/mL, the MIC ([2]; Table S1, RKI 94/15) was no more than 0.5 µg/mL and the MIC ([2]; Table S1, RKI 95/16) was no more than 0.5 µg/mL. For the same compound, the MIC ([2]; Table S1, RKI 107/15) was 1 µg/mL (≈ 2.61 µM), the MIC ([2]; Table S1, RKI 138/16) was no more than 0.5 µg/mL and the MIC ([2]; Table S1, RKI 164/16) was greater than 64 µg/mL. It also gave an MIC ([2]; Table S1, RKI 229/15) of 16 µg/mL (≈ 41.7 µM), an MIC ([2]; Table S1, RKI 320/16) of no more than 0.5 µg/mL and an MIC ([2]; Table S1, RKI 328/16) of 64 µg/mL (≈ 167 µM). The MIC ([2]; Table S1, RKI 373/16-1) was no more than 0.5 µg/mL, the MIC ([2]; Table S1, RKI 393/16) was no more than 0.5 µg/mL and the MIC ([2]; Table S1, RKI 461/16) was no more than 0.5 µg/mL. The MIC ([2]; Table S1, RKI 503/15) was 32 µg/mL (≈ 83.4 µM), the MIC ([2]; Table S1, RKI 544/13) was greater than 64 µg/mL and the MIC ([2]; Table S1, RKI 577/15) was no more than 0.5 µg/mL. For the same compound, the MIC ([2]; Table S1, RKI 908/15) was 32 µg/mL (≈ 83.4 µM), the MIC [3] was no more than 0.5 µg/mL and the MIC [4] was 16 µg/mL (≈ 41.7 µM). The MIC ([5]; Table S1, RKI 75/15) was greater than 64 µg/mL, the MIC ([5]; Table S1, RKI 95/15) was no more than 0.5 µg/mL and the MIC ([5]; Table S1, RKI 97/15) was no more than 0.5 µg/mL. It also gave an MIC ([5]; Table S1, RKI 314/16) of no more than 0.5 µg/mL, an MIC ([5]; Table S1, RKI 317/16) of no more than 0.5 µg/mL and an MIC ([5]; Table S1, RKI 330/16) of no more than 0.5 µg/mL. For the same compound, the MIC ([5]; Table S1, RKI 443/16) was 4 µg/mL (≈ 10.4 µM), the MIC ([5]; Table S1, RKI 462/16) was no more than 0.5 µg/mL and the MIC ([5]; Table S1, RKI 513/16) was no more than 0.5 µg/mL. The MIC ([5]; Table S1, RKI 514/16) was no more than 0.5 µg/mL, the MIC ([5]; Table S1, RKI 515/16) was no more than 0.5 µg/mL and the MIC ([5]; Table S1, RKI 521/16) was no more than 0.5 µg/mL. The MIC ([5]; Table S1, RKI 524/16) was no more than 0.5 µg/mL, the MIC ([5]; Table S1, RKI 525/16) was no more than 0.5 µg/mL and the MIC ([5]; Table S1, RKI 581/16) was no more than 0.5 µg/mL. The MIC ([5]; Table S1, RKI 582/16) was no more than 0.5 µg/mL, the MIC ([5]; Table S1, RKI 583/16) was no more than 0.5 µg/mL and the MIC ([5]; Table S1, RKI 590/16) was no more than 0.5 µg/mL. It also gave an MIC ([5]; Table S1, RKI 592/16) of no more than 0.5 µg/mL, an MIC ([5]; Table S1, RKI 593/16) of no more than 0.5 µg/mL and an MIC ([5]; Table S1, RKI 602/16) of no more than 0.5 µg/mL. For the same compound, the MIC ([5]; Table S1, RKI 607/16) was 8 µg/mL (≈ 20.9 µM), the MIC ([5]; Table S1, RKI 867/14) was 8 µg/mL (≈ 20.9 µM) and the MIC ([5]; Table S1, RKI 1023/14) was no more than 0.5 µg/mL. The MIC [6] was greater than 64 µg/mL, the MIC ([7]; Table S1, RKI 81/15) was no more than 0.5 µg/mL and the MIC ([7]; Table S1, RKI 93/15) was no more than 0.5 µg/mL. It also gave an MIC ([7]; Table S1, RKI 599/16) greater than 64 µg/mL, an MIC ([7]; Table S1, RKI 659/13) of no more than 0.5 µg/mL and an MIC [8] greater than 64 µg/mL. For the same compound, the MIC [9] was 16 µg/mL (≈ 41.7 µM).

Source: article PMC7284870, “Antimicrobial Peptides from Rat-Tailed Maggots of the Drone Fly Eristalis tenax Show Potent Activity against Multidrug-Resistant Gram-Negative Bacteria” (Microorganisms, 2020)
